Article PMC9238327, “RG100204, A Novel Aquaporin-9 Inhibitor, Reduces Septic Cardiomyopathy and Multiple Organ Failure in Murine Sepsis” (Frontiers in Immunology, 2022)

Assays:
Aquaporin 9 (AQP9) [1] = molecular target: T1, Aquaporin 9 (AQP9) (Mus musculus, UniProt Q9JJJ3); experiment: water and glycerol permeability in CHO cells expressing mouse AQP9 (calcein fluorescence); type: cell-based
T1 sequence (Q9JJJ3 1-295): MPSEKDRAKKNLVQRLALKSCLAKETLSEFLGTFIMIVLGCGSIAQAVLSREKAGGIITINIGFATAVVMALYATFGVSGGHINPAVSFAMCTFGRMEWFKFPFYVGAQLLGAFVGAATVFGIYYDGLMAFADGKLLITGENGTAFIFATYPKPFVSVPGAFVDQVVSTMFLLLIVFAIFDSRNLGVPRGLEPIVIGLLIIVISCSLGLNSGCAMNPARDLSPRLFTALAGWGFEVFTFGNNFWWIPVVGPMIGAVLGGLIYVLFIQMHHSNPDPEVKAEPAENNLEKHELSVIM

Aquaporin 9 (AQP9) [2] = molecular target: T1, Aquaporin 9 (AQP9); experiment: glycerol, water and H2O2 permeability in CHO cells expressing mouse AQP9 (calcein / HyPer-3 fluorescence); type: cell-based

IC50 (Aquaporin 9 (AQP9) [1]) [nM]	IC50 (Aquaporin 9 (AQP9) [2]) [nM]	Structure (SMILES)
~720	–	O=C(CCc1ccc(O)cc1)c1c(O)cc(O)cc1O [Phlor, phloretin]
–	~76	CCn1c(SCC(=O)Nc2nnc(-c3ccc(OC(C)C)cc3)s2)nnc1C(C)C [RG, RG100204]
